Experimental data published in patent publication US20210180013A1, “IMPROVED METHODS FOR INDUCING TISSUE REGENERATION AND SENOLYSIS IN MAMMALIAN CELLS” (AgeX Therapeutics, Inc., priority 2018, published 2021).
Several values for one entry are separate records, joined by “and”; a condition that tells them apart may be missing. Identical values can stand only once.

B1: A: LIN28A-11R (LD Biopharma HTF 0046) 4 ug/ml (protein, UniProt Q9H9Z2 2-209, looked up)
Protein lin-28 homolog A: GSVSNQQFAGGCAKAAEEAPEEAPEDAARAADEPQLLHGAGICKWFNVRMGFGFLSMTARAGVALDPPVDVFVHQSKLHMEGFRSLKEGEAVEFTFKKSAKGLESIRVTGPGGVFCIGSERRPKGKSMQKRRSKGDRCYNCGGLDHHAKECKLPPQPKKCHFCQSISHMVASCPLKAQQGPSAQGKPTYFREEEEEIHSPTLLPEAQN
modifications: C-terminal 11-arginine cell-penetrating tag
notes: LIN28A-11R (LD Biopharma HTF 0046) 4 ug/ml

Experiments:
30MV2-6 and HAEC = assay: TUNEL apoptosis assay, embryonic vs adult vascular endothelial cells; type: cell-based, human; details: 3.7 nM; 24 hours; 30MV2-6 vs HAEC; FIG. 7
Protocol: (§1) Optimized conditions were identified for distinguishing the increased apoptosis anticipated by cells with a pre-fetal pattern of gene expression. Embryonic and adult-derived mesenchymal (4D20.8 and MSCs respectively) and vascular endothelial cells (30MV2-6 and HAEC respectively) were treated with diverse stimuli for apoptosis including: Camptothecin (CPT), H2O2, and Thapsigargin (TG) at two concentrations each as well as a vehicle control. The compounds were applied for 24 hours prior to analysis. After treatment apoptosis was monitored via TUNEL staining using the In Situ Cell Death Detection kit (Roche, cat #12156792910) following the manufacturer's instructions. […] This assay is therefore useful in determining the effectiveness of iTR factors in inducing senolysis in aged cells and in CSCs.

4D20.8 and MSCs = assay: TUNEL apoptosis assay, embryonic vs adult mesenchymal cells; type: cell-based, human; details: 3.7 nM; 24 hours; 4D20.8 vs MSC; FIG. 7
Protocol: as §1

BJ-TERT fibroblast cells = assay: Scratch assay of tissue regeneration and cell proliferation; type: cell-based; details: 2 weeks treatment; 800 um scratch; % filling 16 hours later
Protocol: BJ-TERT fibroblast cells at passage 8 were seeded at 50,000 cells/well on 6 well plates in DMEM 10% FBS. The following day the cells were treated with various cocktails listed below for 2 weeks:
Following treatment, at confluence an 800 um scratch was made and % filling evaluated 16 hours later. Filling of scratch of treated cells were compared to that of control.

[1] = tested on: Xgene fibroblasts (human foreskin); assay: Cell number of early and late passage fibroblasts (senolytic activity); type: cell-based; details: for cell number, Avg / cell number, single wells: 20,000 cells/well seeded; for cell number, Avg / cell number, single wells / cell number compared to controls, in words: 1 week; for Fold change of cell number: relative to control (growth medium alone)
Protocol: Xgene fibroblasts (human foreskin, obtained from Xgene, Sausilito Calif.) were seeded at early (P9) and late (P33) passage at 20,000 cells/well (0.1% gelatin coated 24 well plate) in growth medium (DMEM+10% FBS). The following day they were refed medium with the additive listed below for 1 week and fed every other day and then counted.

COX7A1 = assay: qPCR of COX7A1 after valproic acid treatment; type: cell-based; details: 28 days, adult derived dermal fibroblasts
Protocol: Adult derived dermal fibroblasts were cultured in DMEM 10% FBS in wells of 6 well plates and treated with valproic acid at 0.5 mM and 1 mM for 28 days. On day 28 the media was removed, the cells were washed with PBS, and then lysed using RLT with beta-mercaptoethanol (Qiagen Cat 79216). Total RNA was extracted using Qiagen RNeasy mini-kits (Qiagen Cat 74106) following manufacturers instructions. Then cDNA was prepared using ThermoFisher superscript III (Cat. 18080044). qPCR was run on an Applied Biosystems 7500 Real-Time PCR System employing SDSv2.3 software to evaluate the expression of COX7A1 (which is a definitive indicator of adult phenotype) relative to GAPDH of the treated line relative to the untreated line.

| Molecule | apoptosis (TUNEL), embryonic endothelial cells compared to adult counterparts (30MV2-6 and HAEC) | apoptosis (TUNEL), embryonic mesenchymal cells compared to adult counterparts (4D20.8 and MSCs) | Fold Increase Over Control (filling of scratch) (BJ-TERT fibroblast cells) | cell number, Avg ([1]; early passage P9) | cell number, single wells ([1]; early passage P9, listed as Cond. B) | Fold change of cell number ([1]; early passage P9) | cell number compared to controls, in words ([1]; late passage (P33)) | cell number, Avg ([1]; late passage P33) | cell number, single wells ([1]; late passage P33, listed as Cond. B) | Fold change of cell number ([1]; late passage P33) | COX7A1 expression (normalized to GAPDH) compared to control (untreated) (COX7A1; 0.5 mM) | COX7A1 expression (normalized to GAPDH) compared to control (untreated) (COX7A1; 1 mM) | cell number compared to controls, in words ([1]; early passage (P9)) | cell number, single wells ([1]; early passage P9, listed as Cond A) | cell number compared to controls, in words ([1]; late passage (P33), listed as condition A) | cell number, single wells ([1]; late passage P33, listed as Cond A) |
| --- | --- | --- | --- | --- | --- | --- | --- | --- | --- | --- | --- | --- | --- | --- | --- | --- |
| C/C=C(/C)C(=O)O[C@H]1C(C)=C2[C@H]([C@@H]1OC(=O)CCCCCCC)[C@@](C)(OC(C)=O)C[C@H](OC(=O)CCC)[C@@]1(O)[C@H]2OC(=O)[C@@]1(C)O [Thapsigargin] | robust statistically-significant increase in apoptosis | robust statistically-significant increase in apoptosis | – | – | – | – | – | – | – | – | – | – | – | – | – | – |
| CCCC(CCC)C(=O)O [valproic acid] | – | – | 1.4 | 226,000 | 228,000 and 224,000 | 1.2 | differential effect on late passage cells | 67,000 | 62,000 and 72,000 | 1.0 | negligible effect | 0.001 | – | – | – | – |
| B1 | – | – | 1.2 | 254,000 | – | 1.3 | differential effect on late passage cells | 48,000 | – | 0.8 | – | – | heightened cell number | 220,000 and 288,000 | reduced cell number | 46,000 and 50,000 |
